According to patent publication US20060286626A1, “Selective chromophores” (priority 2002, published 2006):
“Also recorded” adds a separate entry of the source.

How the values were obtained:
Type in all cases: cell-based
[1] = test system: small intestine sections from rats; assay: Fluorescent staining of small intestine sections from rat
Source text: Derivatives of Nile Red (FIG. 1) were synthesized and their staining of testis and small intestine sections from rats were studied. Nile Red is a member of benzophenoxazine compounds that provide a family of fluorescent dyes, which can be used, for labelling biological molecules in various applications. The phenoxazine dyes tend to have a large Stokes' shift of 80-100 nm. Nile Red is a highly fluorescent dye, which absorbs energy above 550 nm. Consequently it has mainly been used for lipid staining but also as a solvatrochromic probe to measure the solvent strength of several liquids.
(§1) Fluorescence microscopic experiments were performed with a Zeizz (West Germany) microscope equipped with Plan Neofuar 40/0.9 I mm Ph3 and Plan Neofuar 25/0.8 W-Oel Ph2 objectives. A Winder M35 camera was used to obtain the microscopic images.

[2] = test system: human cell line of fibro sarcom, HT80; assay: Staining of human fibro sarcoma cells; settings: live HT80 cells, 5 μg/ml, without Triton-x
Source text: The positively charged part of the molecule might bind to the anionic phosphate group of phospholipids present in the plasma membrane. Since the PASU dyes are uncharged and relatively small molecules they have the ability to pass through the outer layer of the cells. […] To answer the question of what the dyes have affinity for further investigations have to be performed. Furthermore the dyes can be used for detection of receptors of cells. […] By adding a substance that induce conformational changes of the receptor which result in that the dye fit to the receptor, or use a dye with a substituent that fit in the inactivated receptor, the targets, receptors, can be detected as small fluorescent particles, so called pits. Thus, the dyes can be used to detect receptors and follow conformational changes of the receptor, activation-inactivation of receptor.
The stock solutions of the dyes were diluted with PBS or PBS+Triton-x to 5 μg/ml when added to both fixed and unfixed mature fibro sarcoma cells, cell line HT 80. Due to lack of time only the live cells untreated with Triton-x are discussed in the result.

[3] = test system: sections of testis from rat; assay: Fluorescent staining of testis sections from rat; settings: for cells stained / affinity in testis: 15 minutes incubation, concentration not given; for concentration dependence of staining in testis: 0.05-50 μg/ml
Procedure: Testis tissues were obtained from a male Sprague-Dawley rat, which has been used as a control in another study. The tissues were fixed in 4% formaldehyde, imbedded in paraffin and sectioned into 4 μm thick slices before dewaxed and hydrated. Stock solutions containing 5 mg dye/ml DMSO and ethanol were made. These were diluted to 0.05, 0.5, 5, 10, and 50 μg/ml with water. At the time of the experiment, 100 μl from each solution was added to the sections, respectively. The sections were incubated for 15 minutes before the excess dye was removed by washing with water.
To se if and if so, the position of benzosuccinimidyl as a substituent alters the affinity of the dyes testis was stained with the two PASU dyes.
as §1

Row | SMILES | part of the cell stained [2] | cells stained / affinity in testis [3] | concentration dependence of staining in testis [3] | also measured
1 | CN(C)c1ccc2nc3c4cc(OCCCN5C(=O)c6ccccc6C5=O)ccc4c(=O)cc-3oc2c1 [PASU-2, 2-[3-(9-Dimethylamino-5-oxo-5H-benzo[a]phenoxazine-2-yloxy)-propyl]-isoindole-1,3-dione] | stains the cytoplasm but not the nucleus | stains spermatides and spermatozoa; also recorded: stain different cells and parts of cells; also recorded: has preferences to sperms and spermatides; also recorded: binds to spermatides and spermatozoa |  | concentration dependence of staining in small intestine ([1]; small intestine from rat): differs a lot with the concentration of dye
2 | CN(C)c1ccc2nc3c4cc(OCCC[N+](C)(C)C)ccc4c(=O)cc-3oc2c1 [PATM-2, 9-Dimethylamino-2-(trimethylammonium-propoxy)-benzo[a]phenoxazin-5-one] | stains the plasma membranes of the cells | stains germ cells | no concentration dependence | permeability of the plasma membrane [2]: does not reach into the cytoplasm of the cells
3 | CN(C)c1ccc2nc3c4cc(OCCCN5C(=O)c6ccccc6C5=O)ccc4c(=O)cc-3oc2c1 [PASU-1, 1-[3-(9-Dimethylamino-5-oxo-5H-benzo[a]phenoxazine-2-yloxy)-propyl]-isoindole-1,3-dione] |  | does not have any affinity |  | 
4 | CN(C)c1ccc2nc3c4cc(OCCCN)ccc4c(=O)cc-3oc2c1 [PA-2, 2-(3-Amino-propoxy)-9-dimethylamino-benzo[a]phenoxazine-5-one] |  | stains stem cells selectively; also recorded: stains stem cells and spermatocytes; also recorded: high affinity for stem cells and spermatocytes; also recorded: has affinity for stem cells at low concentrations | the concentration of the dye added to the tissue determined which cells that were stained | structures stained in small intestine ([1]; slices of small intestine from rat): all nucleuses; cells stained in testis ([3]; dye 0.05 μg/ml): only stem cells were stained; cells stained in testis ([3]; dye 0.5 μg/ml): germ cells and spermatides fluoresced as well; cells stained in testis ([3]; dye 10 μg/ml): spermatocytes were stained as well
5 | CN(C)c1ccc2nc3c4cc(OCCCN5C(=O)c6ccccc6C5=O)ccc4c(=O)cc-3oc2c1 [PASU-3, 3-[3-(9-Dimethylamino-5-oxo-5H-benzo[a]phenoxazine-2-yloxy)-propyl]-isoindole-1,3-dione] |  | stain different cells and parts of cells; also recorded: stains stem cells but not spermatides and spermatozoa |  | 
